Experimental data taken from ChEMBL document CHEMBL1201862, “PubChem BioAssay data set” (2004).
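Values below derive from 48-hour exposures of cells grown in 96-well plates, with endpoints linearly interpolated between the two concentrations bracketing the appropriate inhibition level. At the GI50, growth is halved.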 The source made the active and inactive calls. Rule as the data show it: active = GI50 up to about 1.1 µM and inactive = higher.

How the values were obtained:
Experiment in all cases: inhibition of tumour cell growth, NCI panel, 48 h
SF-539 = system: SF-539
OVCAR-4 = system: OVCAR-4
HOP-92 = system: HOP-92
NCI-H460 = system: NCI-H460
HL-60 = system: HL-60
IGROV-1 = system: IGROV-1
UO-31 = system: UO-31
HOP-62 = system: HOP-62
SK-MEL-28 = system: SK-MEL-28
SR = system: SR
NCI-H23 = system: NCI-H23
U-251 = system: U-251
UACC-62 = system: UACC-62
K562 = system: K562
ACHN = system: ACHN
SK-MEL-5 = system: SK-MEL-5

SMILES | GI50 (SF-539) | GI50 (OVCAR-4) | GI50 (HOP-92) | GI50 (NCI-H460) | GI50 (HL-60) | GI50 (IGROV-1) | GI50 (UO-31) | GI50 (HOP-62) | GI50 (SK-MEL-28) | GI50 (SR) | GI50 (NCI-H23) | GI50 (U-251) | GI50 (UACC-62) | GI50 (K562) | GI50 (ACHN) | GI50 (SK-MEL-5)
CCOC(=O)C1(Br)S(=O)(=O)OCCOS1(=O)=O | > 100 µM (inactive) | > 100 µM (inactive) | > 100 µM (inactive) | > 100 µM (inactive) | > 100 µM (inactive) | > 100 µM (inactive) | > 100 µM (inactive) | > 100 µM (inactive) | > 100 µM (inactive) | > 100 µM (inactive) | > 100 µM (inactive) | > 100 µM (inactive) | > 100 µM (inactive) | > 100 µM (inactive) | > 100 µM (inactive) | > 100 µM (inactive)
CC(=O)Nc1ccc(SC#N)c2c(NC(C)=O)cccc12 | > 100 µM (inactive) | > 92.9 µM (inactive) | 50.7 µM (inactive) | > 100 µM (inactive) | 24.1 µM (inactive) | > 100 µM (inactive) | > 95.5 µM (inactive) | > 100 µM (inactive) | 84.3 µM (inactive) | 33.6 µM (inactive) | > 100 µM (inactive) | > 100 µM (inactive) | 78.3 µM (inactive) | 34 µM (inactive) | > 100 µM (inactive) | > 100 µM (inactive)
CCOC(=O)C1=C(O)C(=O)c2ccccc2C1=O | > 100 µM (inactive) | > 100 µM (inactive) | > 100 µM (inactive) | > 100 µM (inactive) | > 100 µM (inactive) | > 100 µM (inactive) | > 100 µM (inactive) | > 100 µM (inactive) | > 100 µM (inactive) | > 100 µM (inactive) | 44.3 µM (inactive) | > 100 µM (inactive) | 48 µM (inactive) | > 100 µM (inactive) | > 100 µM (inactive) | 46.5 µM (inactive)
CC1CCCC2(O1)OC1CC(=O)OC1C1=C2C(=O)c2ccccc2C1=O (stereo unspecified) | 5.81 µM (inactive) | 1.86 µM (inactive) | – | 25.9 µM (inactive) | 1.39 µM (inactive) | 2.65 µM (inactive) | 2.13 µM (inactive) | 16.4 µM (inactive) | 2.14 µM (inactive) | – | 5.13 µM (inactive) | 18.2 µM (inactive) | 2.25 µM (inactive) | 0.63 µM (active) | 4.39 µM (inactive) | 2.06 µM (inactive)
O=C(O)C12CC3CC(CC(F)(C3)C1)C2 | > 100 µM (inactive) | – | > 100 µM (inactive) | > 100 µM (inactive) | > 100 µM (inactive) | > 100 µM (inactive) | > 100 µM (inactive) | > 100 µM (inactive) | > 100 µM (inactive) | – | > 100 µM (inactive) | > 100 µM (inactive) | > 100 µM (inactive) | > 100 µM (inactive) | > 100 µM (inactive) | > 100 µM (inactive)
CCOC(=N)CC(=O)Nc1cccc(C)c1C | > 100 µM (inactive) | > 100 µM (inactive) | – | > 100 µM (inactive) | > 100 µM (inactive) | > 100 µM (inactive) | > 100 µM (inactive) | > 100 µM (inactive) | > 100 µM (inactive) | > 100 µM (inactive) | > 100 µM (inactive) | > 100 µM (inactive) | > 100 µM (inactive) | > 10 µM (inactive) | > 100 µM (inactive) | > 100 µM (inactive)
Cc1ccc(C(=O)N2c3ccccc3N(C)n3cccc3C2CC(=O)O)cc1 (stereo unspecified) | > 100 µM (inactive) | > 100 µM (inactive) | > 100 µM (inactive) | > 100 µM (inactive) | > 100 µM (inactive) | > 100 µM (inactive) | > 100 µM (inactive) | > 100 µM (inactive) | > 100 µM (inactive) | – | > 100 µM (inactive) | – | > 100 µM (inactive) | > 100 µM (inactive) | > 100 µM (inactive) | > 100 µM (inactive)
CN1COCN/C1=N/C#N | > 100 µM (inactive) | > 100 µM (inactive) | – | > 100 µM (inactive) | > 100 µM (inactive) | > 100 µM (inactive) | > 100 µM (inactive) | > 100 µM (inactive) | > 100 µM (inactive) | – | – | – | > 100 µM (inactive) | > 100 µM (inactive) | > 100 µM (inactive) | –
C/N=c1/ss/c(=N\C(SC)=[N+](C)C)n1C.[O-][Cl+3]([O-])([O-])[O-] | – | – | > 100 µM (inactive) | 4.09 µM (inactive) | 31.3 µM (inactive) | > 100 µM (inactive) | > 100 µM (inactive) | > 100 µM (inactive) | > 100 µM (inactive) | > 100 µM (inactive) | > 100 µM (inactive) | > 100 µM (inactive) | 3.99 µM (inactive) | 17.3 µM (inactive) | > 100 µM (inactive) | 0.419 µM (active)
COc1ccc(N2C(=O)/C(=C(\C)c3cc4ccccc4oc3=O)N=C2c2cc([N+](=O)[O-])ccc2Cl)cc1 | 29.9 µM (inactive) | 38.4 µM (inactive) | – | 41.9 µM (inactive) | 22.9 µM (inactive) | 43.3 µM (inactive) | 46.9 µM (inactive) | > 100 µM (inactive) | 66.4 µM (inactive) | 34.4 µM (inactive) | 11.2 µM (inactive) | 48.1 µM (inactive) | 26.6 µM (inactive) | 10.8 µM (inactive) | 32.1 µM (inactive) | 30.6 µM (inactive)
O=C1C=CC(=O)C12CCc1ccccc12 | > 100 µM (inactive) | > 100 µM (inactive) | > 100 µM (inactive) | > 100 µM (inactive) | 24.2 µM (inactive) | > 100 µM (inactive) | > 100 µM (inactive) | > 100 µM (inactive) | > 100 µM (inactive) | – | > 100 µM (inactive) | > 100 µM (inactive) | > 100 µM (inactive) | 36.4 µM (inactive) | > 100 µM (inactive) | > 100 µM (inactive)
C[C@]12CCC(=O)C(O)=C1CCC2=O | > 100 µM (inactive) | > 100 µM (inactive) | > 100 µM (inactive) | > 100 µM (inactive) | > 100 µM (inactive) | > 100 µM (inactive) | > 100 µM (inactive) | > 100 µM (inactive) | > 100 µM (inactive) | > 100 µM (inactive) | – | > 100 µM (inactive) | > 100 µM (inactive) | – | > 100 µM (inactive) | > 100 µM (inactive)
C/C=C/C(=O)[C@@H](O)C(C)C | – | > 100 µM (inactive) | > 100 µM (inactive) | – | – | > 100 µM (inactive) | > 100 µM (inactive) | – | > 100 µM (inactive) | > 100 µM (inactive) | > 100 µM (inactive) | > 100 µM (inactive) | > 100 µM (inactive) | > 100 µM (inactive) | > 100 µM (inactive) | > 100 µM (inactive)
O=C1C(c2ccccc2)=C(c2ccccc2)C(c2ccccc2)/C1=C1\C(=O)C(c2ccccc2)=C(c2ccccc2)C1c1ccccc1 (stereo unspecified) | > 100 µM (inactive) | > 100 µM (inactive) | > 100 µM (inactive) | > 100 µM (inactive) | > 100 µM (inactive) | > 100 µM (inactive) | > 100 µM (inactive) | > 100 µM (inactive) | > 100 µM (inactive) | > 100 µM (inactive) | > 100 µM (inactive) | > 100 µM (inactive) | > 100 µM (inactive) | – | > 100 µM (inactive) | > 100 µM (inactive)
